From patent US20230391727A1, “ANALOGUES OF PENTAMIDINE AND METHODS FOR TREATING INFECTIONS” (Auransa Inc., priority 2020, published 2023)
Values after ≈ are worked out from the molar mass of the structure shown. Values joined by “and” are separate entries in the source; they are usually repeats but may differ in a detail not shown here. Equal values may be shown once. Read-outs that look alike come from different tables or passages of the source.

Key:
[1] = Anti-fungal MIC assay, summary of first round; type: cell-based; details: read-out: Isolate MIC (100%); range over isolates of the first round of testing
Experimental: (§1) The first round of testing included Candida parapsilosis, Candida krusei, Paecilomyces variotii, Candida albicans, Aspergillus fumigatus, and Blastomyces dermatitidis. […] The second round of testing included Candida parapsilosis, Candida krusei, Candida albicans, Candida auris, Candida glabrata, Candida guilliermondii, and Cryptococcus neoformans.
(§2) Stock solutions of the investigational agent were prepared at concentrations 100-times the highest concentration to be tested (6400 μg/ml) using dimethyl sulfoxide. Aliquots of the stock solutions were dispensed into polystyrene vials and stored at −20° C.
(§3) The synthetic medium RPMI-1640 (with glutamine, without bicarbonate, and with phenol red) was used. The RPMI was buffered to a pH of 7.0+0.1 at 25° C. with 0.165M MOPS (3-[N-morpholino] propanesulfonic acid). Sterile U-shaped 96-well cell culture plates were used to perform the MIC assays. […]
(§4) Fungal isolates were grown on Sabouraud dextrose agar (yeasts) or potato flake agar (filamentous fungi) and cells were collected after an appropriate period of growth for each species being evaluated (e.g., 48-72 hours for yeasts and 7 days for filamentous fungi). The fungi were suspended in sterile distilled water, and the densities of the fungal suspension were read using a spectrophotometer and adjusted to an appropriate optical density specific for each fungal species. […]

[2] = test system: 17 clinically relevant bacterial strains; test: Checkerboard assays with rifampicin, summary over the panel; type: cell-based; details: compound 3 in combination of rifampicin; 17 test strains
Source text: The 17 test strains/isolates were: (1) Serratia marcescens (ATCC 13880); (2) Salmonella typhimurium (ATCC 13311); (3) Salmonella choleraesuis (ATCC 10708); (4) Acinetobacter baumannii (ATCC BAA-1605); (5) A. baumannii (ATCC 17978); (6) A. baumannii (FDA-CDC AR-BANK#0088); (7) Citrobacter freundii (ATCC 8090); (8) Pseudomonas aeruginosa (BCCM 27647); (9) P. aeruginosa (BCCM 27648); (10) Escherichia coli (ATCC 25922); (11) E. coli (ATCC 10536); (12) Stenotrophomonas maltophilia (ATCC 13637); (13) Enterobacter cloacae (ATCC BAA-1143); (14) E. cloacae (ATCC 13047); (15) E. aerogenes (ATCC 13048); (16) Klebsiella pneumoniae (NCTC 13438); and (17) Klebsiella pneumoniae (FDA-CDC AR-BANK#0160). […]
The 17 test strains were grown on nutrient agar or tryptic soy agar (TSA) medium as below. […] The absorbance of the bacterial suspension was measured with a spectrophotometer at OD620nm, and then the suspension was adjusted to 1-2×10^8 CFU/mL in PBS. […] The actual microbial count in the assay ranged from 2˜8×10^5 CFU/mL as determined from dilution plating. […]
Assay plates were incubated and MIC endpoints were read as complete inhibition of visual growth. […]
FIC (Fraction Inhibitory Concentration) and FIC Index (FICI) values for each test condition and the average of FICI values of all pairwise combinations were calculated to determine if synergy or antagonism existed between the two substances. […]

A. baumannii ATCC 17978 = test: Checkerboard assay with novobiocin (FIGS. 2, 3, 5, 6); type: cell-based, Acinetobacter baumannii
Source text: Novobiocin is an anti-staphylococcal drug, but with limited use. The oral form of novobiocin drug has since been withdrawn from the market due to lack of efficacy. This antibiotic is often used to treat Staphylococcus aureus infection, particularly methicillin resistant S. aureus “MRSA”.

[3] = test system: human primary hepatocytes; test: alamarBlue cell viability, cytotoxicity in hepatocytes; type: cell-based; details: 24 hours
Experimental: Compound 3 was tested for cytotoxicity in human primary hepatocytes in duplicate at 8 concentrations ranging from 0.03 μM to 100 μM (0.013 μg/ml to 44.95 μg/ml ).
This assay was performed using cryopreserved human primary hepatocytes (PHH). The cryopreserved PHH were seeded in collagen I coated 96-well plates in plating medium. The medium was replaced with incubation medium 2-4 hours after seeding. After overnight culture, test compound (compound 3) (0.03, 0.1, 0.3, 1, 3, 10, 30, 100 μM), reference compound (chlorpromazine) and vehicle control (1% DMSO) were added, and incubated with the cells for 24 hours followed by the addition of the alamarBlue cell viability reagent. The plates are analyzed for fluorescent intensity after alamarBlue addition. % of cell viability (% of control) was calculated by comparing the background (wells without cells) corrected fluorescent intensity in the compound treated wells and vehicle control treated wells. IC50 values were determined by non-linear regression analysis of the concentration-response curves using the Hill equation. Testing was done in duplicate.

Candida glabrata CG3 = test: Anti-fungal MIC assay; type: cell-based; details: Nakaseomyces glabratus
Experimental: as §1, §2
(§5) The synthetic medium RPMI-1640 (with glutamine, without bicarbonate, and with phenol red) was used. The RPMI was buffered to a pH of 7.0+0.1 at 25° C. with 0.165M MOPS (3-[N-morpholino] propanesulfonic acid). Sterile U-shaped 96-well cell culture plates were used to perform the MIC assays. Dilutions of the DMSO stocks were prepared in RPMI to achieve 2× concentrations. After the dilutions of the working 2× investigational antifungal solutions were prepared, 0.1 ml of each concentration was transferred into a pre-specified column of the U-shaped 96-well cell culture plate using sterile pipettes.
(§6) Fungal isolates were grown on Sabouraud dextrose agar (yeasts) or potato flake agar (filamentous fungi) and cells were collected after an appropriate period of growth for each species being evaluated (e.g., 48-72 hours for yeasts and 7 days for filamentous fungi). The fungi were suspended in sterile distilled water, and the densities of the fungal suspension were read using a spectrophotometer and adjusted to an appropriate optical density specific for each fungal species. The fungal suspension of each isolate was then diluted in RPMI. A sufficient volume of the test inoculum was prepared to directly inoculate 0.1 ml into each test well of the 96-well cell culture plate. Final inoculum ranges were dependent on the fungal species to be tested (e.g., 0.4×103 to 5×10^3 cells/ml for yeasts and dimorphic fungi, and 0.4×104 to 5×10^4 cells/ml for filamentous fungi). Each well of the 96-well cell culture plate containing the investigational antifungal compounds (0.1 ml volume) was inoculated on the day of the assay with 0.1 ml of the fungal suspension. Growth control wells contained 0.1 ml of fungal suspension and 0.1 ml of the growth medium without antifungal agents. The media control well contained 0.2 ml of the growth medium.
(§7) The microdilution trays were incubated at 35° C. without agitation. […] One positive comparator/control was used for yeast (fluconazole) and one was used for filamentous fungi (voriconazole).

[4] = test system: Blastomyces dermatitidis BD3; test: Anti-fungal MIC assay; type: cell-based
Experimental: as §1, §2, §5, §6, §7

[5] = test system: Blastomyces dermatitidis BD2; test: Anti-fungal MIC assay; type: cell-based
Experimental: as §1, §2, §5, §6, §7

[6] = test system: Candida guilliermondii Cgui3; test: Anti-fungal MIC assay; type: cell-based; details: Meyerozyma guilliermondii
Experimental: as §1, §2, §5, §6, §7

Candida parapsilosis CP3 = test: Anti-fungal MIC assay; type: cell-based; details: Lodderomyces parapsilosis
Experimental: as §1, §2, §5, §6, §7

Candida albicans CA6 = test: Anti-fungal MIC assay; type: cell-based
Experimental: as §1, §2, §5, §6, §7

[7] = test system: Cryptococcus neoformans USC 1597; test: Anti-fungal MIC assay; type: cell-based
Experimental: as §1, §2, §5, §6, §7

Candida parapsilosis CP2 = test: Anti-fungal MIC assay; type: cell-based; details: Lodderomyces parapsilosis
Experimental: as §1, §2, §5, §6, §7

[8] = test system: Aspergillus fumigatus AF2; test: Anti-fungal MIC assay; type: cell-based
Experimental: as §1, §2, §5, §6, §7

[9] = test system: Candida albicans ATCC90028; test: Anti-fungal MIC assay; type: cell-based
Experimental: as §1, §2, §5, §6, §7

K. pneumoniae = test: Checkerboard assay with rifampicin (FIG. 1); type: cell-based, Klebsiella pneumoniae
Source text: As control, pentamidine was used for its synergistic, indifferent or antagonistic interaction with rifampicin in similar conditions. […] In FIG. 1, dark wells indicated growth inhibition of K. pneumoniae and corresponding antibacterial activities of these compounds.

[10] = Anti-fungal MIC assay, summary of second round; type: cell-based; details: read-out: Isolate MIC (100%); range over isolates of the second round of testing
Experimental: as §1, §2, §3, §4

[11] = test system: Candida parapsilosis, Candida krusei, Candida albicans, Candida auris, Candida glabrata, Candida guilliermondii, and Cryptococcus neoformans; test: Anti-fungal MIC assay, summary of second round; type: cell-based; details: Candida strains
Experimental: as §1, §2, §3, §4

[12] = read-out: MIC, 50% growth inhibition
[13] = read-out: MIC, 100% growth inhibition

N=C(N)c1ccc(CC[C@H]2CCC[C@@H](CCc3ccc(C(=N)N)cc3)C2)cc1 [Compound 3, 4,4′-(2,2′-((1R,3S)-cyclohexane-1,3-diyl)bis(ethane-2,1-diyl))dibenzimidamide]
MIC [1]: 1 to 64 µg/mL (≈ 2.66 to 170 µM)
combination effect with rifampicin [2]: synergistic effects for most tested strains
synergistic effect with novobiocin (A. baumannii ATCC 17978): clear synergistic effect
synergy with novobiocin as compared to pentamidine with novobiocin (A. baumannii ATCC 17978): superior synergy
MIC (A. baumannii ATCC 17978; Acinetobacter baumannii, ATCC17978, substance alone): 33.2 µM
effect on cell viability ([3]; 10 μM (4.49 μg/ml) and lower concentrations): No inhibition on cell viability
effect on cell viability ([3]; 30 uM and 100 μM (13.48 μg/ml and 44.95 μg/ml)): significant effects on cell viability
IC50 ([3]; Hepatocyte, human primary hepatocytes): 25 µM and 11.2 µg/mL
MIC (Candida glabrata CG3; [12]): 0.5 µg/mL (≈ 1.33 µM)
MIC (Candida glabrata CG3; [13]): 1 µg/mL (≈ 2.66 µM)
MIC [4, 12]: 4 µg/mL (≈ 10.6 µM)
MIC [4, 13]: 8 µg/mL (≈ 21.2 µM)
MIC [5, 12]: 2 µg/mL (≈ 5.31 µM)
MIC [5, 13]: 4 µg/mL (≈ 10.6 µM)
MIC [6, 12]: 2 µg/mL (≈ 5.31 µM)
MIC [6, 13]: 2 µg/mL (≈ 5.31 µM)
MIC (Candida parapsilosis CP3; [12]): 2 µg/mL (≈ 5.31 µM)
MIC (Candida parapsilosis CP3; [13]): 8 µg/mL (≈ 21.2 µM)
MIC (Candida albicans CA6; [12]): 0.5 µg/mL (≈ 1.33 µM)
MIC (Candida albicans CA6; [13]): 0.5 µg/mL (≈ 1.33 µM)
MIC ([7]; USC1597, read-out: MIC, 50% growth inhibition): 0.5 µg/mL (≈ 1.33 µM)
MIC ([7]; USC1597, read-out: MIC, 100% growth inhibition): 0.5 µg/mL (≈ 1.33 µM)
MIC (Candida parapsilosis CP2; [12]): 1 µg/mL (≈ 2.66 µM)
MIC (Candida parapsilosis CP2; [13]): 4 µg/mL (≈ 10.6 µM)
MIC [8, 12]: 32 µg/mL (≈ 85 µM)
MIC [8, 13]: 32 µg/mL (≈ 85 µM)
MIC [9, 12]: 0.5 µg/mL (≈ 1.33 µM)
MIC [9, 13]: 1 µg/mL (≈ 2.66 µM)
synergistic effect with rifampicin, growth inhibition, compared to pentamidine (K. pneumoniae): superior synergistic effects with rifampicin than pentamidine with rifampicin
MIC [10]: 0.5 to 8 µg/mL (≈ 1.33 to 21.2 µM)
anti-fungal effectiveness compared to fluconazole [11]: more effective in killing several Candida strains of interest that are not affected by fluconazole
